How the values were obtained:
Assay in all cases: relative viability (nuclei count vs DMSO), 5 days (fraction); higher = more cells survive
VX-702 + Luminespib = compound: NC(=O)c1ccc(N(C(N)=O)c2c(F)cccc2F)nc1-c1ccc(F)cc1F [VX-702] + CCNC(=O)c1noc(-c2cc(C(C)C)c(O)cc2O)c1-c1ccc(CN2CCOCC2)cc1 [Luminespib] (partner 0.01 µM)
Outline: (§1)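 For relative viability, nuclei counts in treated wells were divided by those in vehicle wells. Lung cancer cell lines had been pin-tool dosed in 1536-well plates the day after seeding and cultured for 5 days, then fixed and stained in one step (final 0.05% Triton X-100, 1% formaldehyde, 1 ug/ml Hoechst) and imaged at 4×. Doses were one drug alone or a fixed anchor-drug dose plus five library-drug doses (not always all listed) in √10 steps, and values are duplicate-plate medians.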

VX-702 + Alpelisib = compound: NC(=O)c1ccc(N(C(N)=O)c2c(F)cccc2F)nc1-c1ccc(F)cc1F [VX-702] + Cc1nc(NC(=O)N2CCC[C@H]2C(N)=O)sc1-c1ccnc(C(C)(C)C(F)(F)F)c1 [Alpelisib] (partner 2 µM)
Outline: as §1

Dabrafenib + Navitoclax = compound: CC(C)(C)c1nc(-c2cccc(NS(=O)(=O)c3c(F)cccc3F)c2F)c(-c2ccnc(N)n2)s1 [Dabrafenib] + CC1(C)CCC(c2ccc(Cl)cc2)=C(CN2CCN(c3ccc(C(=O)NS(=O)(=O)c4ccc(N[C@H](CCN5CCOCC5)CSc5ccccc5)c(S(=O)(=O)C(F)(F)F)c4)cc3)CC2)C1 [Navitoclax] (partner 0.5 µM)
Outline: as §1

Dabrafenib + Phenformin = compound: CC(C)(C)c1nc(-c2cccc(NS(=O)(=O)c3c(F)cccc3F)c2F)c(-c2ccnc(N)n2)s1 [Dabrafenib] + N=C(N)NC(=N)NCCc1ccccc1 [Phenformin] (partner 250 µM)
Outline: as §1

201T
relative viability (VX-702 + Luminespib; first compound 0.02 µM): 1 | relative viability (VX-702 + Luminespib; first compound 0.2 µM): 1.04 | relative viability (VX-702 + Luminespib; first compound 0.6325 µM): 0.992 | relative viability (VX-702 + Luminespib; first compound 2 µM): 1.07 | relative viability (VX-702 + Alpelisib; first compound 0.02 µM): 0.997 | relative viability (VX-702 + Alpelisib; first compound 0.2 µM): 1.04 | relative viability (VX-702 + Alpelisib; first compound 0.6325 µM): 1.03 | relative viability (VX-702 + Alpelisib; first compound 2 µM): 1.02 | relative viability (Dabrafenib + Navitoclax; first compound 0.003 µM): 1.19 | relative viability (Dabrafenib + Navitoclax; first compound 0.009487 µM): 1.18 | relative viability (Dabrafenib + Navitoclax; first compound 0.03 µM): 1.15 | relative viability (Dabrafenib + Navitoclax; first compound 0.09487 µM): 1.15 | relative viability (Dabrafenib + Navitoclax; first compound 0.3 µM): 1.26 | relative viability (Dabrafenib + Phenformin; first compound 0.003 µM): 0.423 | relative viability (Dabrafenib + Phenformin; first compound 0.009487 µM): 0.428 | relative viability (Dabrafenib + Phenformin; first compound 0.03 µM): 0.372 | relative viability (Dabrafenib + Phenformin; first compound 0.09487 µM): 0.41 | relative viability (Dabrafenib + Phenformin; first compound 0.3 µM): 0.465

A549
relative viability (VX-702 + Alpelisib; first compound 0.02 µM): 0.727 | relative viability (VX-702 + Alpelisib; first compound 0.2 µM): 0.666 | relative viability (VX-702 + Alpelisib; first compound 0.6325 µM): 0.692 | relative viability (VX-702 + Alpelisib; first compound 2 µM): 0.857 | relative viability (Dabrafenib + Navitoclax; first compound 0.003 µM): 1.09 | relative viability (Dabrafenib + Navitoclax; first compound 0.009487 µM): 1.26 | relative viability (Dabrafenib + Navitoclax; first compound 0.03 µM): 1.28 | relative viability (Dabrafenib + Navitoclax; first compound 0.09487 µM): 1.18 | relative viability (Dabrafenib + Navitoclax; first compound 0.3 µM): 1.2 | relative viability (Dabrafenib + Phenformin; first compound 0.009487 µM): 0.18 | relative viability (Dabrafenib + Phenformin; first compound 0.03 µM): 0.191 | relative viability (Dabrafenib + Phenformin; first compound 0.09487 µM): 0.173 | relative viability (Dabrafenib + Phenformin; first compound 0.3 µM): 0.151

A-427
relative viability (VX-702 + Luminespib; first compound 0.02 µM): 0.715 | relative viability (VX-702 + Luminespib; first compound 0.2 µM): 0.919 | relative viability (VX-702 + Luminespib; first compound 0.6325 µM): 0.823 | relative viability (VX-702 + Luminespib; first compound 2 µM): 0.774 | relative viability (VX-702 + Alpelisib; first compound 0.02 µM): 0.997 | relative viability (VX-702 + Alpelisib; first compound 0.2 µM): 0.99 | relative viability (VX-702 + Alpelisib; first compound 0.6325 µM): 1.1 | relative viability (VX-702 + Alpelisib; first compound 2 µM): 1.17 | relative viability (Dabrafenib + Navitoclax; first compound 0.009487 µM): 0.954 | relative viability (Dabrafenib + Navitoclax; first compound 0.03 µM): 0.91 | relative viability (Dabrafenib + Navitoclax; first compound 0.09487 µM): 0.803 | relative viability (Dabrafenib + Navitoclax; first compound 0.3 µM): 0.888 | relative viability (Dabrafenib + Phenformin; first compound 0.009487 µM): 0.292 | relative viability (Dabrafenib + Phenformin; first compound 0.03 µM): 0.273 | relative viability (Dabrafenib + Phenformin; first compound 0.09487 µM): 0.276 | relative viability (Dabrafenib + Phenformin; first compound 0.3 µM): 0.378

ABC-1
relative viability (VX-702 + Luminespib; first compound 0.02 µM): 0.518 | relative viability (VX-702 + Luminespib; first compound 0.2 µM): 0.48 | relative viability (VX-702 + Luminespib; first compound 0.6325 µM): 0.567 | relative viability (VX-702 + Luminespib; first compound 2 µM): 0.894 | relative viability (VX-702 + Alpelisib; first compound 0.02 µM): 0.948 | relative viability (VX-702 + Alpelisib; first compound 0.6325 µM): 0.901 | relative viability (VX-702 + Alpelisib; first compound 2 µM): 1 | relative viability (Dabrafenib + Phenformin; first compound 0.003 µM): 0.214 | relative viability (Dabrafenib + Phenformin; first compound 0.009487 µM): 0.233 | relative viability (Dabrafenib + Phenformin; first compound 0.03 µM): 0.254 | relative viability (Dabrafenib + Phenformin; first compound 0.09487 µM): 0.232 | relative viability (Dabrafenib + Phenformin; first compound 0.3 µM): 0.209

BEN
relative viability (VX-702 + Luminespib; first compound 0.02 µM): 0.374 | relative viability (VX-702 + Luminespib; first compound 0.2 µM): 0.221 | relative viability (VX-702 + Luminespib; first compound 0.6325 µM): 0.49 | relative viability (VX-702 + Luminespib; first compound 2 µM): 0.331 | relative viability (VX-702 + Alpelisib; first compound 0.02 µM): 0.823 | relative viability (VX-702 + Alpelisib; first compound 0.2 µM): 0.912 | relative viability (VX-702 + Alpelisib; first compound 0.6325 µM): 0.919 | relative viability (VX-702 + Alpelisib; first compound 2 µM): 1.18 | relative viability (Dabrafenib + Navitoclax; first compound 0.009487 µM): 0.0803 | relative viability (Dabrafenib + Navitoclax; first compound 0.09487 µM): 0.0599 | relative viability (Dabrafenib + Navitoclax; first compound 0.3 µM): 0.0801 | relative viability (Dabrafenib + Phenformin; first compound 0.009487 µM): 0.257 | relative viability (Dabrafenib + Phenformin; first compound 0.09487 µM): 0.272 | relative viability (Dabrafenib + Phenformin; first compound 0.3 µM): 0.242

CAL-12T
relative viability (VX-702 + Luminespib; first compound 0.02 µM): 0.565 | relative viability (VX-702 + Luminespib; first compound 0.2 µM): 0.574 | relative viability (VX-702 + Luminespib; first compound 0.6325 µM): 0.318 | relative viability (VX-702 + Luminespib; first compound 2 µM): 0.363 | relative viability (VX-702 + Alpelisib; first compound 0.02 µM): 1.22 | relative viability (VX-702 + Alpelisib; first compound 0.2 µM): 1.27 | relative viability (VX-702 + Alpelisib; first compound 0.6325 µM): 1.16 | relative viability (VX-702 + Alpelisib; first compound 2 µM): 1.24 | relative viability (Dabrafenib + Navitoclax; first compound 0.003 µM): 1.28 | relative viability (Dabrafenib + Navitoclax; first compound 0.009487 µM): 1.32 | relative viability (Dabrafenib + Navitoclax; first compound 0.03 µM): 1.4 | relative viability (Dabrafenib + Navitoclax; first compound 0.09487 µM): 1.3 | relative viability (Dabrafenib + Navitoclax; first compound 0.3 µM): 1.27 | relative viability (Dabrafenib + Phenformin; first compound 0.003 µM): 0.584 | relative viability (Dabrafenib + Phenformin; first compound 0.009487 µM): 0.51 | relative viability (Dabrafenib + Phenformin; first compound 0.03 µM): 0.601 | relative viability (Dabrafenib + Phenformin; first compound 0.09487 µM): 0.572 | relative viability (Dabrafenib + Phenformin; first compound 0.3 µM): 0.677

COR-L23
relative viability (VX-702 + Luminespib; first compound 0.02 µM): 0.749 | relative viability (VX-702 + Luminespib; first compound 0.2 µM): 0.719 | relative viability (VX-702 + Luminespib; first compound 0.6325 µM): 0.688 | relative viability (VX-702 + Luminespib; first compound 2 µM): 0.761 | relative viability (VX-702 + Alpelisib; first compound 0.02 µM): 0.947 | relative viability (VX-702 + Alpelisib; first compound 0.2 µM): 0.831 | relative viability (VX-702 + Alpelisib; first compound 0.6325 µM): 0.841 | relative viability (VX-702 + Alpelisib; first compound 2 µM): 0.986 | relative viability (Dabrafenib + Navitoclax; first compound 0.003 µM): 0.948 | relative viability (Dabrafenib + Navitoclax; first compound 0.009487 µM): 0.997 | relative viability (Dabrafenib + Navitoclax; first compound 0.03 µM): 0.908 | relative viability (Dabrafenib + Navitoclax; first compound 0.09487 µM): 0.927 | relative viability (Dabrafenib + Navitoclax; first compound 0.3 µM): 0.894 | relative viability (Dabrafenib + Phenformin; first compound 0.003 µM): 0.466 | relative viability (Dabrafenib + Phenformin; first compound 0.009487 µM): 0.425 | relative viability (Dabrafenib + Phenformin; first compound 0.03 µM): 0.431 | relative viability (Dabrafenib + Phenformin; first compound 0.09487 µM): 0.396 | relative viability (Dabrafenib + Phenformin; first compound 0.3 µM): 0.431

COR-L 105
relative viability (VX-702 + Luminespib; first compound 0.02 µM): 0.688 | relative viability (VX-702 + Luminespib; first compound 0.2 µM): 0.715 | relative viability (VX-702 + Luminespib; first compound 0.6325 µM): 0.78 | relative viability (VX-702 + Luminespib; first compound 2 µM): 0.91 | relative viability (VX-702 + Alpelisib; first compound 0.02 µM): 1.08 | relative viability (VX-702 + Alpelisib; first compound 0.2 µM): 0.947 | relative viability (VX-702 + Alpelisib; first compound 0.6325 µM): 0.868 | relative viability (VX-702 + Alpelisib; first compound 2 µM): 1.24 | relative viability (Dabrafenib + Navitoclax; first compound 0.003 µM): 0.73 | relative viability (Dabrafenib + Navitoclax; first compound 0.009487 µM): 0.856 | relative viability (Dabrafenib + Navitoclax; first compound 0.03 µM): 0.649 | relative viability (Dabrafenib + Navitoclax; first compound 0.09487 µM): 0.875 | relative viability (Dabrafenib + Navitoclax; first compound 0.3 µM): 0.744 | relative viability (Dabrafenib + Phenformin; first compound 0.003 µM): 0.497 | relative viability (Dabrafenib + Phenformin; first compound 0.009487 µM): 0.507 | relative viability (Dabrafenib + Phenformin; first compound 0.03 µM): 0.417 | relative viability (Dabrafenib + Phenformin; first compound 0.09487 µM): 0.492 | relative viability (Dabrafenib + Phenformin; first compound 0.3 µM): 0.547

Calu-6
relative viability (VX-702 + Alpelisib; first compound 0.02 µM): 0.942 | relative viability (VX-702 + Alpelisib; first compound 0.2 µM): 1.07 | relative viability (VX-702 + Alpelisib; first compound 0.6325 µM): 1 | relative viability (VX-702 + Alpelisib; first compound 2 µM): 1.2 | relative viability (Dabrafenib + Navitoclax; first compound 0.003 µM): 0.83 | relative viability (Dabrafenib + Navitoclax; first compound 0.009487 µM): 0.799 | relative viability (Dabrafenib + Navitoclax; first compound 0.03 µM): 0.77 | relative viability (Dabrafenib + Navitoclax; first compound 0.09487 µM): 0.604 | relative viability (Dabrafenib + Navitoclax; first compound 0.3 µM): 0.587

ChaGo-K-1
relative viability (VX-702 + Luminespib; first compound 0.02 µM): 0.657 | relative viability (VX-702 + Luminespib; first compound 0.2 µM): 0.46 | relative viability (VX-702 + Luminespib; first compound 0.6325 µM): 0.586 | relative viability (VX-702 + Luminespib; first compound 2 µM): 0.678 | relative viability (Dabrafenib + Navitoclax; first compound 0.009487 µM): 0.891 | relative viability (Dabrafenib + Navitoclax; first compound 0.03 µM): 0.966 | relative viability (Dabrafenib + Navitoclax; first compound 0.09487 µM): 0.986 | relative viability (Dabrafenib + Navitoclax; first compound 0.3 µM): 1.06 | relative viability (Dabrafenib + Phenformin; first compound 0.003 µM): 0.315 | relative viability (Dabrafenib + Phenformin; first compound 0.009487 µM): 0.446 | relative viability (Dabrafenib + Phenformin; first compound 0.03 µM): 0.472 | relative viability (Dabrafenib + Phenformin; first compound 0.09487 µM): 0.418 | relative viability (Dabrafenib + Phenformin; first compound 0.3 µM): 0.556

Source: the supplement of paper PMC10307832
